Usually EC50 stands for the concentration that produces a half-maximal response.

Holding throughout (assay type): cell-based
Conditions in all cases: 18-24 hrs

The target in one assay is T1, PPARγ (Homo sapiens, UniProt P37231).
T1 construct: expressed in transfected cells; host or cells: HEK293
T1 sequence (P37231 238-503 limits assumed): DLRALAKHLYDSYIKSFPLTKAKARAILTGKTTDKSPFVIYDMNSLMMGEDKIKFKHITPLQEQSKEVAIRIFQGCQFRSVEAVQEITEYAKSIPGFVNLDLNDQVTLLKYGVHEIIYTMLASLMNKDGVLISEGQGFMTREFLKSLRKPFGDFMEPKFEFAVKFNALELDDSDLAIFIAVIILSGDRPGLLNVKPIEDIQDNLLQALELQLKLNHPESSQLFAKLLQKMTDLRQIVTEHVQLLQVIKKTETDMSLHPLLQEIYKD
Description: Transfection assay, GAL4-PPARγ LBD luciferase reporter in HEK293 cells. The method, then: (§1) HEK293 cells were grown in DMEM/F12 medium supplemented with 10% FBS and glutamine (Invitrogen) and incubated in a 5% CO2 incubator at 37° C. The cells were co-transfected using DMRIE-C reagent (Invitrogen) in serum free medium (Opti-MEM, Invitrogen) with two mammalian expression plasmids, one containing the DNA sequence coding for the ligand binding domains of either PPARα, γ or δ fused to the yeast GAL4 DNA binding domain and the other containing the promoter sequence of the yeast GAL4 (UAS) fused to the firefly luciferase cDNA reporter. The next day, the medium was changed to DMEM/F12 medium supplemented with 5% charcoal treated serum (Hyclone) and glutamine. After 6 hrs the cells were trypsinized and seeded at a density of 50,000 cells/well into 96 well plates and incubated overnight as above. The cells were then treated with test compounds or vehicle and incubated for 18-24 hrs as above. Luciferase reporter activity was measured using the Steady-Glo Luciferase Assay Kit from Promega. DMRIE-C Reagent was purchased from GIBCO Cat. No. 10459-014. OPTI-MEM I Reduced Serum Medium was purchased from GIBCO (Cat. No. 31985). Steady-Glo Luciferase Assay Kit was purchased from Promega (Part #E254B).
(§2) A variety of example compounds have been made and tested, with a range of in vitro results. Below, in Table 2, are representative compounds and data; in some cases, where multiple EC50's are shown, multiple measurements were taken. Naturally, different compounds in Formula (I) may have not activities identical to any one compound below.
On the technique in general: In a reporter assay the amount or activity of a reporter protein is the signal.

The target of the next assay is T2, PPARδ (Homo sapiens, UniProt Q03181).
T2 construct: expressed in transfected cells; host or cells: HEK293
T2 sequence (Q03181 211-439 limits assumed): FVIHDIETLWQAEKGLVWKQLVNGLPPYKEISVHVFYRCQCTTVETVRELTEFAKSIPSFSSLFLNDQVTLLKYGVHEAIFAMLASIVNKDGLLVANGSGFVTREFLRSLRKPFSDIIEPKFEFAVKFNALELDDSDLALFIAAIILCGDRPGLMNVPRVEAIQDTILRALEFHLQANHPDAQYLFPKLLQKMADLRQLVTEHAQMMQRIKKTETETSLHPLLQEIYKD
The assay is described as follows: Transfection assay, GAL4-PPARδ LBD luciferase reporter in HEK293 cells. The procedure: as §1, §2

The target of a further assay is T3, PPARα (Homo sapiens, UniProt Q07869).
T3 construct: expressed in transfected cells; host or cells: HEK293
T3 sequence (Q07869 239-466 limits assumed): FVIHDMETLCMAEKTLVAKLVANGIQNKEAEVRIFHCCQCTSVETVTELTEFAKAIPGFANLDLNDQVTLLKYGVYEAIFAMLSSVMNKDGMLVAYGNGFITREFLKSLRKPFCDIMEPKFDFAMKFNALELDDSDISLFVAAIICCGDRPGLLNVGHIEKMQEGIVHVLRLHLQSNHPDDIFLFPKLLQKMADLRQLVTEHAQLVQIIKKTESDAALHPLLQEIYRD
Description: Transfection assay, GAL4-PPARα LBD luciferase reporter in HEK293 cells. The method, then:
as §1, §2

Several values for one entry are separate records, joined by “and”; a condition that tells them apart may be missing. Equal entries are not always repeated.

Take `CC(C)(Oc1ccc2c(c1)CCN(Cc1ccc(-c3ccc(C(F)(F)F)cc3)s1)CC2)C(=O)O` [compound 8]: the half-maximal effective concentration (EC50) on PPARγ was greater than 3 µM; on PPARδ, 0.0859 µM and 0.123 µM; on PPARα, greater than 1 µM.
For the compound `CC(c1ccc(-c2ccc(C(F)(F)F)cc2)s1)N1CCc2ccc(OCC(=O)O)cc2CC1` (single isomer, unassigned) [27a], the EC50 is greater than 1 µM at PPARγ, 0.00092 µM on PPARδ and greater than 3 µM at PPARα.
Take `O=C(O)COc1ccc2c(c1)CCN(Cc1cc(-c3ccc(C(F)(F)F)cc3)cs1)CC2` [compound 23]: the half-maximal effective concentration (EC50) at PPARγ was greater than 3 µM; on PPARδ, 0.109 µM and 0.0702 µM; at PPARα it was greater than 3 µM.
Regarding `CC(C)(Oc1ccc2c(c1)CCN(Cc1nc(-c3ccc(C(F)(F)F)cc3)ns1)CC2)C(=O)O` [compound 4], the EC50 was greater than 3 µM at PPARγ, 0.0952 µM at PPARδ and greater than 3 µM at PPARα.
As for `O=C(O)COc1ccc2c(c1)CCN(Cc1cccc(-c3ccc(C(F)(F)F)cc3)c1)CC2` [compound 47], the concentration giving a half-maximal response (EC50) at PPARγ, at PPARδ and at PPARα was greater than 3 µM each time.
On to `COc1ccc(-c2ccc(CN3CCc4ccc(OCC(=O)O)cc4CC3)o2)cc1` [compound 44], for which the figures for the half-maximal effective concentration (EC50) on PPARγ, on PPARδ and on PPARα were greater than 3 µM, greater than 1 µM and greater than 3 µM, respectively.
In the case of `Cc1cc(-c2ccc(C(F)(F)F)cc2)sc1CN1CCc2ccc(OC(C)(C)C(=O)O)cc2CC1` [compound 14], the half-maximal effective concentration (EC50) on PPARγ was greater than 3 µM; at PPARδ it was 0.398 µM; at PPARα, greater than 3 µM.
For `Cc1cc(-c2ccc(C(F)(F)F)cc2)oc1CN1CCc2ccc(OCC(=O)O)cc2CC1` [compound 36], the EC50 was greater than 3 µM at PPARγ, 0.0292 µM at PPARδ and greater than 3 µM at PPARα.
Take `Cc1nc(-c2ccc(C(F)(F)F)cc2)oc1CN1CCc2ccc(OC(C)(C)C(=O)O)cc2CC1` [compound 19]: the results for the concentration giving a half-maximal response (EC50) at PPARγ, at PPARδ and on PPARα were greater than 3 µM, 0.231 µM and greater than 3 µM, respectively.
As to `O=C(O)COc1ccc2c(c1)CCN(Cc1ccc(-c3ccc(C(F)(F)F)cc3)cc1)CC2` [compound 40], the concentration for a half-maximal effect (EC50) at PPARγ was greater than 3 µM; at PPARδ it was greater than 1 µM; on PPARα, greater than 3 µM.
On to `O=C(O)COc1ccc2c(c1)CCN(CCc1ccc(-c3ccc(C(F)(F)F)cc3)o1)CC2` [compound 45], for which the concentration for a half-maximal effect (EC50) on PPARγ was greater than 3 µM; on PPARδ, greater than 1 µM; on PPARα, greater than 3 µM.
With `O=C(O)COc1ccc2c(c1)CCN(Cc1cncc(-c3ccc(C(F)(F)F)cc3)n1)CC2` [compound 42], the concentration giving a half-maximal response (EC50) on PPARγ was greater than 3 µM; on PPARδ, greater than 1 µM; at PPARα, greater than 3 µM.
As to `O=C(O)COc1ccc2c(c1)CCN(Cc1ccc(-c3ccc(C(F)(F)F)cc3)nc1)CC2` [compound 46], the 50% effective concentration (EC50) was greater than 3 µM at PPARγ, 0.312 µM at PPARδ and greater than 1 µM at PPARα.
Turning to `CCC(c1ccc(-c2ccc(C(F)(F)F)cc2)s1)N1CCc2ccc(OCC(=O)O)cc2CC1` (stereo not drawn) [compound 30], the EC50 is greater than 3 µM at PPARγ, 0.0009 µM on PPARδ and greater than 3 µM on PPARα.
Take `O=C(O)COc1ccc2c(c1)CCN(Cc1nc(-c3ccc(C(F)(F)F)cc3)ns1)CC2` [compound 3]: the EC50 on PPARγ is greater than 3 µM; on PPARδ, 0.143 µM; on PPARα, greater than 3 µM.
Take `O=C(O)COc1ccc2c(c1)CCN(Cc1cccc(-c3ccc(C(F)(F)F)cc3)n1)CC2` [compound 43]: the half-maximal effective concentration (EC50) at PPARγ, at PPARδ and at PPARα was greater than 3 µM each time.
In the case of `O=C(O)COc1ccc2c(c1)CCN(CCc1ccc(-c3ccc(C(F)(F)F)cc3)s1)CC2` [compound 22], the concentration giving a half-maximal response (EC50) on PPARγ, on PPARδ and on PPARα was greater than 3 µM in each case.
